Source: patent US20100240603A1, “EXPRESSION INHIBITOR OF NUCLEAR TRANSCRIPTION FACTOR AP-1 AND PHARMACEUTICALS AND PRODUCTS USING THE SAME” (ARKRAY, INC., priority 2006, published 2010)
≈ marks a conversion by molar mass, not a printed value.

What was measured:
[1] = system: nuclear transcription factor AP-1; experiment: nuclear transcription factor AP-1 SEAP reporter assay in TPA-stimulated HeLa cells; format: cell-based; settings: TPA 4 μg/mL, 24 h
Description: (§1) HeLa cells were tripsinized and centrifuged at 4° C. and 1,000 rpm for 3 minutes. The collected Hela cells were seeded on a 30-mm dish so that the density was 2×10^5 cells/well, which served as a test plate. With the test plate being placed at 37° C. for 12 hours in the presence of 5% CO2, the cells were cultured and were then transformed. For the transformation, two types of vectors were transfected into the aforementioned cells using a transformation reagent (trade name: Effectene Transfection Reagent, QIAGEN). The vectors used herein were pAP-1 (PMA)-SEAP (trade name) (CLONTECH) (0.4 μg) and pLuc-control (trade name) (CLONTECH) (0.02 μg). The cells transfected with both of the vectors were cultured at 37° C. for 16 hours in the presence of 5% CO2, and then the cultured cells were detached from the aforementioned test plate using trypsin. The detached cells were dispensed into a 96-well plate so that 0.2×10^4 cells were contained in each well. The cells thus dispensed were cultured for two hours. […] The medium thus collected was evaluated for the secreated alkaline phosphatase (SEAP) activity based on the activity of the nuclear transcription factor AP-1 contained in the medium, using a kit (trade name: Great EscAPe SEAP kit, CLONTECK). […]

NF-κB = NF-κB SEAP reporter assay in TNF-alpha-stimulated HeLa cells; format: cell-based; settings: TNF-alpha 40 ng/mL, 24 h
Description: as §1, with “pNF-κB-SEAP” for “pAP-1 (PMA)-SEAP”, “NF-κB” for “the nuclear transcription factor AP-1”, “medium” for “medium,”

**Q.** How did the “expression of the nuclear transcription factor AP-1 (FIG. 2)” value ([1]; HeLa cells, 10, 5.0, 2.5, 1.0 μg/mL) turn out when `CC(O)(CC(=O)O)CC(=O)OCC1OC(Oc2cc(O)c3c(=O)cc(-c4ccc(O)cc4)oc3c2)C(O)C(O)C1O` (stereo not shown) [chamaemeloside, apigenin 7-glucoside-6″-(3′″-hydroxy-3′″-methyl-glutarate)] was run?
**A.** suppressed (inhibited) in a concentration-dependent manner

**Q.** And the IC50 ([1]; Homo sapiens, HeLa cells transfected with pAP-1 (PMA)-SEAP and pLuc-control, corrected by luciferase activity, read-out: IC50 of inhibition of nuclear transcription factor AP-1 expression (SEAP activity))?
**A.** 5 µg/mL (≈ 8.67 µM)

**Q.** And the “expression of NF-κB (FIG. 3)” value (NF-κB; HeLa cells)?
**A.** inhibited the expression of NF-κB in a concentration-dependent manner

**Q.** What about the IC50 (NF-κB; Homo sapiens, HeLa cells transfected with pNF-κB-SEAP and pLuc-control, corrected by luciferase activity, read-out: IC50 of inhibition of NF-κB expression (SEAP activity)) of the same compound?
**A.** 80 µg/mL (≈ 139 µM)
